From patent publication US6362234B1, “Water-soluble prodrugs of propofol for treatment of migrane” (Vyrex Corporation, priority 2000, dated 2002)
Where a name gives a salt, the structure may show the parent alone.

Key:
[1] = male, Sprague-Dawley, rat, in vivo
Protocol: (§4) Propofol hemisuccinate sodium salt in aqueous solution was administered to adult male Sprague-Dawley rats by gavage. Blood was collected at 2, 4, 8 and 24 hours after dosing, and analyzed by HPLC as described in example 3.

[2] = In vivo hydrolysis of propofol hemisuccinate after gavage; conditions: rats, two day observation period following the dosing
Protocol: as §4

[3] = system: low density lipoprotein (LDL); assay: Copper-promoted oxidation of LDL (conjugated dienes); assay type: biochemical, human; conditions: 5 μM compound; 100 μg/ml LDL, 5 μM copper sulfate
Source text: (§1) The following experiment is based on the use of low density lipoprotein (LDL) as an oxidizable substrate. LDL is one of the plasma lipoproteins whose oxidation is thought to contribute to the pathogenesis of atherosclerosis. The copper-promoted, the hydrogen peroxide-/horseradish peroxidase-promoted and the myeloperoxidase-promoted oxidation of LDL are models for the free radical-induced oxidation of LDL that occurs in vivo.
(§2) LDL was isolated from heparinized plasma of normal human donors by ultracentrifugation. Most of the experiments described in this study were performed immediately after isolation. Examples and further details of the experimental procedures may be found in N. Santanam et al J. Clin Invest. 95(6):2594 (1995) and FEBS Letters, 414:549-551 (1997).
(§3) The formation of conjugated dienes was measured in a spectrophotometer (model DB-3500; SLM-AMINCO, Urbana, Ill.) equipped with a 12 position sample changer. Samples and references were measured continuously for periods of up to several hours. Typically, 100 μg/ml of LDL was incubated in PBS with 1 U horseradish peroxidase (type X, 260 U/mg) in the presence of 50 μM H2O2. For copper-mediated oxidation, 100 μg/ml LDL was incubated with 5 μM copper sulfate solution.

[4] = system: low density lipoprotein (LDL); assay: Hydrogen peroxide/horseradish peroxidase-promoted oxidation of LDL (conjugated dienes); assay type: biochemical, human; conditions: 5 μM compound; 100 μg/ml LDL, 1 U horseradish peroxidase, 50 μM H2O2
Source text: as §1, §2, §3

Compound: CC(C)c1cccc(C(C)C)c1OC(=O)CCC(=O)O [propofol hemisuccinate, 2,6-diisopropylphenyl hydrogen succinate]
- Time of peak blood levels of propofol after dosing [1]: 2 to 4 h
- Condition of the animals after dosing [2]: All the animals remained healthy and active

Compound: CC(C)c1cccc(C(C)C)c1OC(=O)CCC(=O)O (as salt: succinate) [propofol hemisuccinate, 2,6-diisopropylphenyl hydrogen succinate]
- melting point: 101 to 102 °C

Compound: mono(propofol) phosphate disodium salt [(mono)propofol phosphate]
- Effect on copper-promoted oxidation of LDL [3]: not significantly affected
- Effect on oxidation of LDL in the presence of horseradish peroxidase/hydrogen peroxide [4]: not significantly affected
